Experiments:
[1] = test system: giant foxtail; experiment: Test A preemergence; format: in vivo, Setaria faberii; conditions: Setaria faberi, pre-emergence, 240 h
Summary of the method: (§1)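 Visual injury scored 0–100 (100 = complete control) against untreated controls about 10 days after treatment in a greenhouse. Test chemicals, formulated with surfactant in non-phytotoxic solvent, were sprayed on soil preemergence or on 2-10 cm, one- to two-leaf plants postemergence.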

[2] = test system: morningglory; experiment: Test A preemergence; format: in vivo, Ipomoea spp.
Summary of the method: as §1

[3] = test system: velvetleaf; experiment: Test A preemergence; format: in vivo, Abutilon theophrasti
Summary of the method: as §1

[4] = test system: wheat; experiment: Test A preemergence; format: in vivo, Triticum aestivum
Summary of the method: as §1

[5] = test system: morningglory; experiment: Test A postemergence; format: in vivo, Ipomoea spp.; conditions: Ipomoea, post-emergence, 240 h, 0 to 100 scale where 0 is no effect and 100 is complete control, read-out: Plant response rating, Morningglory
Summary of the method: as §1

[6] = test system: velvetleaf; experiment: Test A postemergence; format: in vivo, Abutilon theophrasti; conditions: Abutilon theophrasti, post-emergence, 240 h, 0 to 100 scale where 0 is no effect and 100 is complete control, read-out: Plant response rating, Velvetleaf
Summary of the method: as §1

[7] = test system: corn; experiment: Test A postemergence; format: in vivo, Zea mays; conditions: Zea mays, post-emergence, 240 h
Summary of the method: as §1

[8] = test system: blackgrass; experiment: Test C postemergence; format: in vivo, Alopecurus myosuroides; conditions: Alopecurus myosuroides, post-emergence
Summary of the method: (§2)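 Preemergence: seeds sown in a loam soil–sand blend and sprayed with test chemical in a non-phytotoxic solvent mixture containing surfactant. Postemergence: plants at 2 to 18 cm (1- to 4-leaf stage) in peat-based medium, treated with the same formulation. Greenhouse 13 to 15 days, then visual rating 0 (no effect) to 100 (complete control).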

[9] = test system: wheat, winter; experiment: Test C postemergence; format: in vivo, Triticum aestivum; conditions: Triticum aestivum, post-emergence
Summary of the method: as §2

[10] = test system: galium; experiment: Test C postemergence; format: in vivo, Galium aparine; conditions: Galium, post-emergence
Summary of the method: as §2

[11] = test system: johnsongrass; experiment: Test C postemergence; format: in vivo, Sorghum halepense
Summary of the method: as §2

[12] = test system: pigweed; experiment: Test C postemergence; format: in vivo, Amaranthus retroflexus; conditions: Amaranthus retroflexus, post-emergence
Summary of the method: as §2

[13] = test system: ragweed; experiment: Test C postemergence; format: in vivo, Ambrosia elatior; conditions: Ambrosia artemisiifolia, post-emergence
Summary of the method: as §2

[14] = test system: soybean; experiment: Test C postemergence; format: in vivo, Glycine max; conditions: Glycine max, post-emergence
Summary of the method: as §2

[15] = test system: oilseed rape; experiment: Test C postemergence; format: in vivo, Brassica napus; conditions: Brassica napus, post-emergence
Summary of the method: as §2

[16] = test system: waterhemp; experiment: Test C postemergence; format: in vivo, Amaranthus rudis; conditions: Amaranthus tuberculatus, post-emergence
Summary of the method: as §2

[17] = test system: kochia; experiment: Test C postemergence; format: in vivo, Kochia scoparia; conditions: Bassia scoparia, post-emergence
Summary of the method: as §2

[18] = test system: velvetleaf; experiment: Test C postemergence; format: in vivo, Abutilon theophrasti; conditions: Abutilon theophrasti, post-emergence
Summary of the method: as §2

[19] = 125 g ai/ha, 0 to 100 scale where 0 is no effect and 100 is complete control

## FC(F)c1cnn(-c2ccccc2Oc2ncc(Cl)cn2)c1 [Compound 80, 5-chloro-2-[2-[4-(difluoromethyl)-1H-pyrazol-1-yl]phenoxy]pyrimidine]
[1]; 125 g ai/ha, 0 to 100 scale where 0 is no effect and 100 is complete control, read-out: Plant response rating, Foxtail, Giant
  pest or weed control at 125 g/ha: 90%
[1]; 500 g ai/ha, 0 to 100 scale, 0 no effect, 100 complete control, approx. 10 days, read-out: Foxtail, Giant plant response rating
  pest or weed control at 500 g/ha: 100%
[2]; [19]
  Plant response rating, Morningglory: 30
[2]; Ipomoea, pre-emergence, 240 h, 500 g ai/ha, 0 to 100 scale, 0 no effect, 100 complete control, approx. 10 days, read-out: Morningglory plant response rating
  pest or weed control at 500 g/ha: 80%
[3]; [19]
  Plant response rating, Velvetleaf: 80
[3]; Abutilon theophrasti, pre-emergence, 240 h, 500 g ai/ha, 0 to 100 scale, 0 no effect, 100 complete control, approx. 10 days, read-out: Velvetleaf plant response rating
  pest or weed control at 500 g/ha: 90%
[4]; [19]
  Plant response rating, Wheat: 10
[4]; Triticum aestivum, pre-emergence, 240 h, 500 g ai/ha, 0 to 100 scale, 0 no effect, 100 complete control, approx. 10 days, read-out: Wheat plant response rating
  plant injury at 500 g/ha: 50%
[5]; 125 g ai/ha
  pest or weed control at 125 g/ha: 90%
[5]; 500 g ai/ha
  pest or weed control at 500 g/ha: 100%
[6]; 125 g ai/ha
  pest or weed control at 125 g/ha: 100%
[6]; 500 g ai/ha
  pest or weed control at 500 g/ha: 100%
[7]; [19]
  Corn plant response rating (crop injury, 0 = no effect, 100 = complete kill) at 125 g/ha: 70%
[7]; 500 g ai/ha, 0 to 100 scale, 0 no effect, 100 complete control, read-out: Plant response rating Corn
  plant injury at 500 g/ha: 10%
[8]; 16 g ai/ha, postemergence, visual rating, scale 0 to 100 (0 no effect, 100 complete control), 13 to 15 days, read-out: Blackgrass plant response rating
  pest or weed control at 16 g/ha: 0%
[8]; 125 g ai/ha, postemergence, read-out: Plant response rating (0 to 100), Blackgrass
  pest or weed control at 125 g/ha: 40%
[8]; Postemergence, 31 g ai/ha, scale 0 to 100 (0 no effect, 100 complete control), 13 to 15 days, read-out: Plant response rating, Blackgrass
  pest or weed control at 31 g/ha: 5%
[8]; Postemergence, 62 g ai/ha, scale 0 to 100 (0 no effect, 100 complete control), read-out: Plant response rating, Blackgrass
  pest or weed control at 62 g/ha: 10%
[9]; 125 g ai/ha, postemergence, read-out: Plant response rating (0 to 100), Wheat
  plant injury at 125 g/ha: 30%
[9]; Postemergence, 31 g ai/ha, scale 0 to 100 (0 no effect, 100 complete control), 13 to 15 days, read-out: Plant response rating, Wheat
  plant injury at 31 g/ha: 0%
[9]; Postemergence, 62 g ai/ha, scale 0 to 100 (0 no effect, 100 complete control), read-out: Plant response rating, Wheat
  plant injury at 62 g/ha: 5%
[10]; 16 g ai/ha, postemergence, visual rating, scale 0 to 100 (0 no effect, 100 complete control), 13 to 15 days, read-out: Galium plant response rating
  pest or weed control at 16 g/ha: 55%
[10]; 125 g ai/ha, postemergence, read-out: Plant response rating (0 to 100), Galium
  pest or weed control at 125 g/ha: 95%
[10]; Postemergence, 31 g ai/ha, scale 0 to 100 (0 no effect, 100 complete control), 13 to 15 days, read-out: Plant response rating, Galium
  pest or weed control at 31 g/ha: 70%
[10]; Postemergence, 62 g ai/ha, scale 0 to 100 (0 no effect, 100 complete control), read-out: Plant response rating, Galium
  pest or weed control at 62 g/ha: 85%
[11]; 16 g ai/ha, postemergence, visual rating, scale 0 to 100 (0 no effect, 100 complete control), 13 to 15 days
  Johnsongrass plant response rating: 0
[11]; Sorghum halepense, post-emergence, 125 g ai/ha, postemergence, read-out: Plant response rating (0 to 100), Johnsongrass
  pest or weed control at 125 g/ha: 5%
[11]; Sorghum halepense, post-emergence, Postemergence, 31 g ai/ha, scale 0 to 100 (0 no effect, 100 complete control), 13 to 15 days, read-out: Plant response rating, Johnsongrass
  pest or weed control at 31 g/ha: 0%
[11]; Sorghum halepense, post-emergence, Postemergence, 62 g ai/ha, scale 0 to 100 (0 no effect, 100 complete control), read-out: Plant response rating, Johnsongrass
  pest or weed control at 62 g/ha: 5%
[12]; 125 g ai/ha, postemergence, read-out: Plant response rating (0 to 100), Pigweed
  pest or weed control at 125 g/ha: 75%
[12]; Postemergence, 31 g ai/ha, scale 0 to 100 (0 no effect, 100 complete control), 13 to 15 days, read-out: Plant response rating, Pigweed
  pest or weed control at 31 g/ha: 60%
[12]; Postemergence, 62 g ai/ha, scale 0 to 100 (0 no effect, 100 complete control), read-out: Plant response rating, Pigweed
  pest or weed control at 62 g/ha: 65%
[13]; 125 g ai/ha, postemergence, read-out: Plant response rating (0 to 100), Ragweed
  pest or weed control at 125 g/ha: 45%
[13]; Postemergence, 31 g ai/ha, scale 0 to 100 (0 no effect, 100 complete control), 13 to 15 days, read-out: Plant response rating, Ragweed
  pest or weed control at 31 g/ha: 40%
[13]; Postemergence, 62 g ai/ha, scale 0 to 100 (0 no effect, 100 complete control), read-out: Plant response rating, Ragweed
  pest or weed control at 62 g/ha: 40%
[14]; 125 g ai/ha, postemergence, read-out: Plant response rating (0 to 100), Soybean
  Soybean plant response rating (crop injury, 0-100 scale) at 125 g/ha: 80%
[14]; Postemergence, 31 g ai/ha, scale 0 to 100 (0 no effect, 100 complete control), 13 to 15 days
  Soybean plant response rating (crop injury, 0-100 scale) at 31 g/ha: 60%
[14]; Postemergence, 62 g ai/ha, scale 0 to 100 (0 no effect, 100 complete control)
  Soybean plant response rating (crop injury, 0-100 scale) at 62 g/ha: 75%
[15]; 125 g ai/ha, postemergence, read-out: Plant response rating (0 to 100), Oilseed Rape
  plant injury at 125 g/ha: 90%
[15]; Postemergence, 31 g ai/ha, scale 0 to 100 (0 no effect, 100 complete control), 13 to 15 days, read-out: Plant response rating, Oilseed Rape
  plant injury at 31 g/ha: 70%
[15]; Postemergence, 62 g ai/ha, scale 0 to 100 (0 no effect, 100 complete control), read-out: Plant response rating, Oilseed Rape
  plant injury at 62 g/ha: 80%
[16]; 125 g ai/ha, postemergence, read-out: Plant response rating (0 to 100), Waterhemp
  pest or weed control at 125 g/ha: 90%
[16]; Postemergence, 31 g ai/ha, scale 0 to 100 (0 no effect, 100 complete control), 13 to 15 days, read-out: Plant response rating, Waterhemp
  pest or weed control at 31 g/ha: 65%
[16]; Postemergence, 62 g ai/ha, scale 0 to 100 (0 no effect, 100 complete control), read-out: Plant response rating, Waterhemp
  pest or weed control at 62 g/ha: 70%
[17]; 16 g ai/ha, postemergence, visual rating, scale 0 to 100 (0 no effect, 100 complete control), 13 to 15 days, read-out: Kochia plant response rating
  pest or weed control at 16 g/ha: 60%
[17]; 125 g ai/ha, postemergence, read-out: Plant response rating (0 to 100), Kochia
  pest or weed control at 125 g/ha: 95%
[17]; Postemergence, 31 g ai/ha, scale 0 to 100 (0 no effect, 100 complete control), 13 to 15 days, read-out: Plant response rating, Kochia
  pest or weed control at 31 g/ha: 90%
[17]; Postemergence, 62 g ai/ha, scale 0 to 100 (0 no effect, 100 complete control), read-out: Plant response rating, Kochia
  pest or weed control at 62 g/ha: 95%
[18]; 125 g ai/ha, postemergence, read-out: Plant response rating (0 to 100), Velvetleaf
  pest or weed control at 125 g/ha: 75%
[18]; Postemergence, 31 g ai/ha, scale 0 to 100 (0 no effect, 100 complete control), 13 to 15 days, read-out: Plant response rating, Velvetleaf
  pest or weed control at 31 g/ha: 45%
[18]; Postemergence, 62 g ai/ha, scale 0 to 100 (0 no effect, 100 complete control), read-out: Plant response rating, Velvetleaf
  pest or weed control at 62 g/ha: 65%
